# Test results published in paper PMC8286840, “Identifying SARS-CoV-2 antiviral compounds by screening for small molecule inhibitors of Nsp3 papain-like protease” (Biochemical Journal, 2021).
# Structures can show the parent of a compound that is named as a salt. Where two headings read alike, the source gives them in different places.
# Assays:
# [1] = target: T1, SARS-CoV-2 PLpro (nsp3 1564–1878) (Severe acute respiratory syndrome coronavirus 2, UniProt P0DTD1); assay: biochemical; parameters: FRET-quenched peptide (Pro3) cleavage by PLpro, 10 min pre-incubation, slope over 20 min, normalised to no-compound control; conditions: read-out: % of control remaining
# [2] = target: T1, SARS-CoV-2 PLpro (nsp3 1564–1878); assay: biochemical; parameters: FRET-quenched peptide (Pro3) cleavage by PLpro, 10 min pre-incubation, slope over 20 min, normalised to no-compound control; conditions: read-out: % of control remaining; remark: listed apart in the source
structure (smiles),measurement,setting,value
NC1CCN(O)C1=O (racemic),remaining activity at 1.25 µM,"[1]; Well no.=250, low concentration screen",101%
same,remaining activity at 3.75 µM,"[2]; Well no.=250, high concentration screen",103%
CC(C(=O)O)c1ccc(-c2ccccc2)c(F)c1 (stereo not shown) [Flurbiprofen],remaining activity at 1.25 µM,"[1]; Well no.=2118, low concentration screen",99.6%
same,remaining activity at 3.75 µM,"[2]; Well no.=2118, high concentration screen",101%
"CCCCCC#CC[C@@H](O)/C=C/C=C/C=C\[C@@H](O)CCCC(=O)O [14,15-Dehydroleukotriene B4]",remaining activity at 1.25 µM,"[1]; Well no.=4518, low concentration screen",97.4%
same,remaining activity at 3.75 µM,"[2]; Well no.=4518, high concentration screen",94.4%
CC(C)C[C@H](NC(=O)[C@@H](COC(C)(C)C)NC(=O)[C@H](Cc1ccc(O)cc1)NC(=O)[C@H](CO)NC(=O)[C@H](Cc1c[nH]c2ccccc12)NC(=O)[C@H](Cc1cnc[nH]1)NC(=O)[C@@H]1CCC(=O)N1)C(=O)N[C@@H](CCCNC(=N)N)C(=O)N1CCC[C@H]1C(=O)NNC(N)=O [Goserelin (acetate)],remaining activity at 1.25 µM,"[1]; Well no.=7338, low concentration screen",97.1%
same,remaining activity at 3.75 µM,"[2]; Well no.=7338, high concentration screen",95%
O=C(O)c1cc(/N=N/c2ccc(O)c(C(=O)O)c2)ccc1O [Olsalazine (Disodium)],remaining activity at 1.25 µM,"[1]; Well no.=7496, low concentration screen",93.9%
same,remaining activity at 3.75 µM,"[2]; Well no.=7496, high concentration screen",92.2%
C[N+]1(C)[C@@H]2CC[C@H]1C[C@@H](OC(=O)C(O)c1ccccc1)C2 (stereo partly shown) [Homatropine (methylbromide)],remaining activity at 1.25 µM,"[1]; Well no.=7379, low concentration screen",94.7%
same,remaining activity at 3.75 µM,"[2]; Well no.=7379, high concentration screen",96%
O=c1[nH]c(=O)n([C@H]2C[C@H](O)[C@@H](CO)O2)cc1Cl [5-Chloro-2'-deoxyuridine],remaining activity at 1.25 µM,"[1]; Well no.=7814, low concentration screen",101%
same,remaining activity at 3.75 µM,"[2]; Well no.=7814, high concentration screen",102%
CN(C)CCOC(=O)COc1ccc(Cl)cc1 [Centrophenoxine hydrochloride],remaining activity at 1.25 µM,"[1]; Well no.=46, low concentration screen",103%
same,remaining activity at 3.75 µM,"[2]; Well no.=46, high concentration screen",107%
CC(C)[C@H](N=C(NS(=O)(=O)c1ccc(Cl)cc1)N1C[C@H](c2ccccc2)C(c2ccc(Cl)cc2)=N1)C(N)=O [JD-5037],remaining activity at 1.25 µM,"[1]; Well no.=8487, low concentration screen",97.2%
same,remaining activity at 3.75 µM,"[2]; Well no.=8487, high concentration screen",82.1%
Cc1cccc(-c2nn(C(=S)Nc3ccccc3)cc2-c2ccnc3ccccc23)n1 [3-(6-methyl-2-pyridinyl)-N-phenyl-4-(4-quinolinyl)-1H-pyrazole-1-carbothioamide],remaining activity at 1.25 µM,[1],99.2%
same,remaining activity at 3.75 µM,[2],100%
CO[C@H](C)[C@](O)(C(=O)OCC1=CCN2CC[C@H](O)[C@@H]12)C(C)C [Heliotrine],remaining activity at 1.25 µM,"[1]; Well no.=3149, low concentration screen",101%
same,remaining activity at 3.75 µM,"[2]; Well no.=3149, high concentration screen",104%
CCCCN(CCCC)CC(O)c1cc(Cl)cc2c1-c1ccc(Cl)cc1/C2=C/c1ccc(Cl)cc1 (stereo not shown) [Lumefantrine],remaining activity at 1.25 µM,"[1]; Well no.=5499, low concentration screen",102%
same,remaining activity at 3.75 µM,"[2]; Well no.=5499, high concentration screen",108%
N[C@@H](CCl)C(=O)O [beta-Chloro-L-alanine hydrochloride],remaining activity at 1.25 µM,"[1]; Well no.=142, low concentration screen",103%
same,remaining activity at 3.75 µM,"[2]; Well no.=142, high concentration screen",105%
CC(C)C[C@H]1C(=O)N2CCC[C@H]2[C@]2(O)O[C@](NC(=O)[C@@H]3C=C4c5cccc6[nH]c(Br)c(c56)C[C@H]4N(C)C3)(C(C)C)C(=O)N12 [Bromocriptine mesylate],remaining activity at 1.25 µM,"[1]; Well no.=1811, low concentration screen",92.4%
same,remaining activity at 1.25 µM,"[1]; Well no.=3485, low concentration screen",104%
same,remaining activity at 3.75 µM,"[2]; Well no.=1811, high concentration screen",91.6%
same,remaining activity at 3.75 µM,"[2]; Well no.=3485, high concentration screen",101%
CCn1cc(C(=O)O)c(=O)c2cc(F)c(N3CCNCC3)nc21 [Enoxacin],remaining activity at 1.25 µM,"[1]; Well no.=2026, low concentration screen",103%
same,remaining activity at 3.75 µM,"[2]; Well no.=2026, high concentration screen",106%
COC(=O)c1c(C)[nH]c(C)c1C(=O)c1ccccc1Cc1ccccc1 [FPL 64176],remaining activity at 1.25 µM,"[1]; Well no.=713, low concentration screen",97.6%
same,remaining activity at 3.75 µM,"[2]; Well no.=713, high concentration screen",94.1%
CN/C(=N\c1ccc(C2=NNC(=O)CC2C)cc1)NC#N (stereo not shown) [Siguazodan],remaining activity at 1.25 µM,"[1]; Well no.=2154, low concentration screen",91.7%
same,remaining activity at 3.75 µM,"[2]; Well no.=2154, high concentration screen",94.5%
CNC(=O)[C@H]1O[C@@H](n2cnc3c(NCc4cccc(I)c4)nc(Cl)nc32)[C@H](O)[C@@H]1O [Namodenoson],remaining activity at 1.25 µM,"[1]; Well no.=8451, low concentration screen",104%
same,remaining activity at 3.75 µM,"[2]; Well no.=8451, high concentration screen",104%
C#CC(N)CCC(=O)O (stereo not shown) [gamma-Acetylinic GABA],remaining activity at 1.25 µM,"[1]; Well no.=258, low concentration screen",94%
same,remaining activity at 3.75 µM,"[2]; Well no.=258, high concentration screen",94.8%
NC(N)=NCCSSCCN=C(N)N [Guanidinoethyl disulfide dihydrobromide],remaining activity at 1.25 µM,"[1]; Well no.=429, low concentration screen",89.1%
same,remaining activity at 3.75 µM,"[2]; Well no.=429, high concentration screen",88.8%
COC(=O)/C(=C1/OC(=O)C(c2ccccc2)=C1O)c1ccccc1 [Vulpinic acid],remaining activity at 1.25 µM,"[1]; Well no.=3513, low concentration screen",102%
same,remaining activity at 3.75 µM,"[2]; Well no.=3513, high concentration screen",104%
CCCCCCCCCCCCCCCC(=O)N[C@@H](COP(=O)(O)O)C(=O)O [L-NASPA],remaining activity at 1.25 µM,"[1]; Well no.=4499, low concentration screen",91.6%
same,remaining activity at 3.75 µM,"[2]; Well no.=4499, high concentration screen",94.8%
"O=[N+]([O-])c1ccc(Nc2nc(N3CCOCC3)nc(N3CCOCC3)n2)cc1 [4,6-di(4-morpholinyl)-N-(4-nitrophenyl)-1,3,5-triazin-2-amine]",remaining activity at 1.25 µM,"[1]; Well no.=6018, low concentration screen",94.4%
same,remaining activity at 3.75 µM,"[2]; Well no.=6018, high concentration screen",92.3%
C=C1CC[C@H]2C(=C)CC[C@H]3C(=C)C(=O)O[C@@H]3[C@@H]12 [Dehydrocostus lactone],remaining activity at 1.25 µM,"[1]; Well no.=3206, low concentration screen",101%
same,remaining activity at 3.75 µM,"[2]; Well no.=3206, high concentration screen",100%
COc1c(N2C[C@@H]3CCCN[C@@H]3C2)c(F)cc2c(=O)c(C(=O)O)cn(C3CC3)c12 [Moxifloxacin.HCl],remaining activity at 1.25 µM,"[1]; Well no.=1568, low concentration screen",97.8%
same,remaining activity at 3.75 µM,"[2]; Well no.=1568, high concentration screen",96.5%
COc1ccc(C[C@H](N)C(=O)N[C@H]2[C@@H](O)[C@H](n3cnc4c(N(C)C)ncnc43)O[C@@H]2CO)cc1 [Puromycin],remaining activity at 1.25 µM,"[1]; Well no.=1674, low concentration screen",98.5%
same,remaining activity at 1.25 µM,"[1]; Well no.=3350, low concentration screen",93.8%
same,remaining activity at 3.75 µM,"[2]; Well no.=1674, high concentration screen",97.6%
same,remaining activity at 3.75 µM,"[2]; Well no.=3350, high concentration screen",90.4%
CCn1cc(C(=O)O)c(=O)c2ccc(Cc3ccccc3)nc21 [Amfonelic acid],remaining activity at 1.25 µM,"[1]; Well no.=446, low concentration screen",98.4%
same,remaining activity at 3.75 µM,"[2]; Well no.=446, high concentration screen",98.5%
CCC/N=C1\S/C(=C\c2ccc(OC[C@H](O)CO)c(Cl)c2)C(=O)N1c1ccccc1C [Ponesimod],remaining activity at 1.25 µM,"[1]; Well no.=8001, low concentration screen",106%
same,remaining activity at 3.75 µM,"[2]; Well no.=8001, high concentration screen",102%
CCCCCCCCCCC/C=C\CCCCCCC(=O)O [8(Z)-Eicosenoic acid],remaining activity at 1.25 µM,"[1]; Well no.=4404, low concentration screen",102%
same,remaining activity at 3.75 µM,"[2]; Well no.=4404, high concentration screen",102%
COC(=O)[C@@H]1[C@H]2C[C@H]3c4[nH]c5ccccc5c4CCN3C[C@@H]2CC[C@@H]1O,remaining activity at 1.25 µM,"[1]; Well no.=3378, low concentration screen",86.8%
same,remaining activity at 3.75 µM,"[2]; Well no.=1699, high concentration screen",103%
same,remaining activity at 3.75 µM,"[2]; Well no.=3378, high concentration screen",87.3%
CC1=CC(=O)C2=C(C)C[C@H](O)[C@@H]3[C@H](OC(=O)[C@H]3C)[C@@H]12 [Austricin],remaining activity at 1.25 µM,"[1]; Well no.=3105, low concentration screen",102%
same,remaining activity at 3.75 µM,"[2]; Well no.=3105, high concentration screen",105%
CN1CCC(=C2c3ccccc3C=Cc3ccccc32)CC1 [Cyproheptadine],remaining activity at 1.25 µM,"[1]; Well no.=2300, low concentration screen",97.2%
same,remaining activity at 3.75 µM,"[2]; Well no.=2300, high concentration screen",98.2%
CCCCC/C=C\C/C=C\CCCCCCCC(N)=O [Linoleamide],remaining activity at 1.25 µM,"[1]; Well no.=4338, low concentration screen",101%
same,remaining activity at 3.75 µM,"[2]; Well no.=4338, high concentration screen",92.5%
[N-]=[N+]=N[C@]1(CO)O[C@@H](n2ccc(N)nc2=O)[C@@H](O)[C@@H]1O [RO-9187],remaining activity at 1.25 µM,"[1]; Well no.=7762, low concentration screen",98.5%
same,remaining activity at 3.75 µM,"[2]; Well no.=7762, high concentration screen",101%
